In brackets after ≈: the same amount, converted by molar mass.
details: not given

| logP | solubility [mM] | Compound |
| --- | --- | --- |
| 2.93 |  | Cc1cc(OCCN(C)C)c(C(C)C)cc1O |
| 4.51 |  | COc1cc(Cl)c(Cl)c(Cl)c1Cl |
| -0.5 |  | Nc1nc(=O)n([C@H]2CC[C@@H](CO)O2)cc1Br |
| 1.66 |  | CC1=CC(=NNC(=N)N)C=CC1=NNC(N)=S |
| 2.07 |  | C=CCNc1ncc(-c2ccncc2)cc1C#N |
| 4.44 |  | COc1cc(N=Nc2c(Br)cc([N+](=O)[O-])cc2[N+](=O)[O-])c(NC(C)=O)c(N(CCOC(C)=O)CCOC(C)=O)c1 |
| 3.01 |  | C=CCOc1ccccc1OCC(CNC(C)C)OC(=O)C1CC1 (centres undefined) |
| 2.05 |  | Cc1cccc(OCCN(C)C)c1 |
|  | 0.00645 (≈ 1.15 µg/mL) | c1ccc2c(c1)ccc1ccccc12 |
| 3.15 |  | CCC(C)C(NC(=O)c1cn(CC)c2nc(C)ccc2c1=O)C(=O)OC (centres undefined) |
| 2.25 |  | CC(CCC(=O)NCC(=O)O)C1CCC2C3CCC4CC(O)CCC4(C)C3CC(O)C12C (centres undefined) |
| 3.27 |  | Cc1cc(O)cc(C)c1Cl |
| 3.58 |  | CCCCC(=O)OCC1OC(n2cnc3c(OC)ncnc32)C(OC(=O)CCCC)C1O (centres undefined) |
| 2.9 |  | CCCCCCC(C)O (centres undefined) |
| 0.37 |  | COC(=O)c1ccccc1CS(N)(=O)=O |
| 1.36 |  | NS(=O)(=O)c1nc2ccc([N+](=O)[O-])cc2s1 |
| 2.57 |  | NS(=O)(=O)c1nn2c(=Nc3ccccc3)snc2s1 |

The next lines start with the molecule.

| Compound | logP | solubility [mM] |
| --- | --- | --- |
| C[N+](C)(C)CC1CCCC1.[I-] | -2 |  |
| Nc1ccc(C=Cc2ccc(N)cc2S(=O)(=O)O)c(S(=O)(=O)O)c1 | -1.7 |  |
| CC1=NS(=O)(=O)c2cnccc2N1 | -0.41 |  |
| Clc1cc2c(cc1Cl)-c1cc(Cl)c(Cl)cc1-2 | 6.14 |  |
| CCCCOC(=O)c1ccccc1C(=O)OCc1ccccc1 | 4.73 |  |
| ClCC1(CCl)C2CC(Cl)(Cl)C1(C(Cl)Cl)CC2(Cl)Cl (centres undefined) | 5.79 |  |
| Clc1cc2c(Cl)ccc(Cl)c2cc1Cl | 5.81 |  |
| ClC1=C(Cl)C2(Cl)C3C(Cl)C(Cl)CC3C1(Cl)C2(Cl)Cl (centres undefined) | 6.16 |  |
| OCc1cc(Cl)cc(Cl)c1 | 2.9 |  |
| CC(=O)NCCc1c[nH]c2ccccc12 | 1.41 |  |
| Clc1c(Cl)c(Cl)c2c(oc3c(Cl)c(Cl)c(Cl)c(Cl)c32)c1Cl | 8.6 |  |
| CCOC1OC2OC3(C)CC(OC4OC(C(=O)O)C(O)C(O)C4O)C4C(C)CCC(C1C)C24OO3 (centres undefined) | 1.73 |  |
| CC(Oc1ccc(Oc2ccc(C(F)(F)F)cn2)cc1)C(=O)O (centres undefined) | 3.18 |  |
| c1ccc2c(c1)-c1cccc3c1c-2cc1ccccc13 | 5.78 |  |

same assay, conditions: 20 °C

| Compound | solubility [mM] |
| --- | --- |
| CC(O)CN(CC(C)O)CC(C)O (centres undefined) | 4340 (≈ 830000 µg/mL) |
| CCOS(=O)(=O)OCC | 45.4 (≈ 7000 µg/mL) |
| CC(C)OC(=O)c1cc(-c2nn(C)c(C(F)(F)F)c2Br)c(F)cc1Cl | 0.000119 (≈ 0.053 µg/mL) |
| CCOC(C)(C)C | 117 (≈ 12000 µg/mL) |
| CCOP(=S)(OCC)Oc1nc(Cl)n(C(C)C)n1 | 0.324 (≈ 102 µg/mL) |

same assay, conditions: 22 °C

| Compound | solubility [mM] |
| --- | --- |
| O=[N+]([O-])c1ccc(Oc2c(Cl)cc(Cl)cc2Cl)cc1 | 0.0024 (≈ 0.764 µg/mL) |

same assay, conditions: 23 °C

| solubility [mM] | Compound |
| --- | --- |
| 203 (≈ 22000 µg/mL) | CCC(C#N)CC#N (centres undefined) |

same assay, conditions: 23.0 °C

| log10 OH rate constant (cm³/molecule/s) | Compound |
| --- | --- |
| -10.2 | CC1=CCC(=O)O1 |
| -10.9 | c1ccc2c(c1)ccc1ccccc12 |
| -10.3 | C=C1C2CCC(C2)C1(C)C (centres undefined) |

| Compound | log10 OH rate constant (cm³/molecule/s) |
| --- | --- |
| C=C(F)F | -11.7 |

same assay, conditions: 24.0 °C

| log10 OH rate constant (cm³/molecule/s) | Compound |
| --- | --- |
| -12 | C[Si]1(C)O[Si](C)(C)O[Si](C)(C)O[Si](C)(C)O1 |

same assay, conditions: 25 °C

| Compound | solubility [mM] |
| --- | --- |
| CC1COCc2cc3c(cc21)C(C)(C)C(C)C3(C)C (centres undefined) | 0.00677 (≈ 1.75 µg/mL) |
| CCCc1ccccc1 | 0.434 (≈ 52.2 µg/mL) |
| ClC1=C(Cl)C2(Cl)C3C4OC4C(Cl)C3C1(Cl)C2(Cl)Cl (centres undefined) | 0.000514 (≈ 0.2 µg/mL) |
| C=C(C)C(=O)OC(C)(C)C | 7.03 (≈ 1000 µg/mL) |
| c1ccc2c(c1)ccc1cc3ccc4ccccc4c3cc12 | 3.7e-06 (≈ 0.00103 µg/mL) |
| CCCCN(CC)C(=O)SCCC | 0.492 (≈ 100 µg/mL) |
| c1ccc2c(c1)ccc1c3ccccc3ccc21 | 8.76e-06 (≈ 0.002 µg/mL) |
| C#Cc1ccccc1 | 4.46 (≈ 456 µg/mL) |
| CCCCOC(=O)COc1ccc(Cl)cc1Cl | 0.166 (≈ 46 µg/mL) |
| CC(C)(C)c1ccc(O)c(O)c1 | 12 (≈ 2000 µg/mL) |
| O=[N+]([O-])c1ccc(N=Nc2ccc(O)cc2)cc1 | 0.016 (≈ 3.89 µg/mL) |
| COCC(C)OC(C)=O (centres undefined) | 1500 (≈ 198000 µg/mL) |
| c1ccc2c(c1)cc1ccc3cccc4ccc2c1c34 | 6.42e-06 (≈ 0.00162 µg/mL) |
| CCS(=O)(=O)c1cccnc1S(=O)(=O)NC(=O)Nc1nc(OC)cc(OC)n1 | < 0.0232 |
| O=C1CCO1 | 5130 (≈ 370000 µg/mL) |
| Nc1ccc2c(c1)C(=O)c1ccccc1C2=O | 0.00073 (≈ 0.163 µg/mL) |
| CCCCOC(=O)c1ccccc1C(=O)OCc1ccccc1 | 0.00861 (≈ 2.69 µg/mL) |
| ClC1=C(Cl)C2(Cl)C3C(Cl)C(Cl)CC3C1(Cl)C2(Cl)Cl (centres undefined) | 0.000137 (≈ 0.056 µg/mL) |
| CC(C)CCO[N+](=O)[O-] | 3.3 (≈ 440 µg/mL) |
| CCCCCCCCCCCCCCCCCCCC | 6.72e-06 (≈ 0.0019 µg/mL) |
| CC(Cl)C(Cl)Cl (centres undefined) | 12.9 (≈ 1900 µg/mL) |
| Clc1c(Cl)c(Cl)c2c(oc3c(Cl)c(Cl)c(Cl)c(Cl)c32)c1Cl | 2.61e-09 (≈ 1.16e-06 µg/mL) |

same assay, conditions: 25.0 °C

| log10 OH rate constant (cm³/molecule/s) | Compound |
| --- | --- |
| -11.9 | COC(=O)CCC(=O)OC |
| -13 | OCC(F)(F)C(F)(F)C(F)(F)F |
| -9.96 | C=C(C)C(CC=O)CCC(C)=O (centres undefined) |
| -13.1 | FC(F)OC(C(F)(F)F)C(F)(F)F |

The next lines start with the molecule.

| Compound | log10 OH rate constant (cm³/molecule/s) |
| --- | --- |
| FC(F)OC(F)F | -14.5 |
| CCOS(=O)(=O)OCC | -11.7 |
| OCCOCCO | -10.5 |
| CCCBr | -11.9 |
| O=CC(F)Cl (centres undefined) | -11.7 |
| O=C(O)C(F)(F)F | -12.9 |
| COCOC | -11.3 |

same assay, conditions: 27.0 °C

| Compound | log10 OH rate constant (cm³/molecule/s) |
| --- | --- |
| O=Cc1ccco1 | -10.5 |
| O=C1C=CC(=O)C=C1 | -11.3 |

same assay, conditions: 30 °C

| solubility [mM] | Compound |
| --- | --- |
| 1.67 (≈ 340 µg/mL) | Ic1ccccc1 |

Source: the OPERA property sets (Mansouri et al. 2018)
